The values that follow come from ChEMBL document CHEMBL2074395, “NF-kappaB-mediated induction of mdr1b expression by insulin in rat hepatoma cells” (J Biol Chem, 1997).

This data set addresses ATP-dependent translocase ABCB1 (Rattus norvegicus, UniProt P43245). Briefly: TP_TRANSPORTER: RNase protection assay in H-4-II-E cells. Format: functional, cell-based.

ATP-dependent translocase ABCB1, sequence (P43245 whole entry): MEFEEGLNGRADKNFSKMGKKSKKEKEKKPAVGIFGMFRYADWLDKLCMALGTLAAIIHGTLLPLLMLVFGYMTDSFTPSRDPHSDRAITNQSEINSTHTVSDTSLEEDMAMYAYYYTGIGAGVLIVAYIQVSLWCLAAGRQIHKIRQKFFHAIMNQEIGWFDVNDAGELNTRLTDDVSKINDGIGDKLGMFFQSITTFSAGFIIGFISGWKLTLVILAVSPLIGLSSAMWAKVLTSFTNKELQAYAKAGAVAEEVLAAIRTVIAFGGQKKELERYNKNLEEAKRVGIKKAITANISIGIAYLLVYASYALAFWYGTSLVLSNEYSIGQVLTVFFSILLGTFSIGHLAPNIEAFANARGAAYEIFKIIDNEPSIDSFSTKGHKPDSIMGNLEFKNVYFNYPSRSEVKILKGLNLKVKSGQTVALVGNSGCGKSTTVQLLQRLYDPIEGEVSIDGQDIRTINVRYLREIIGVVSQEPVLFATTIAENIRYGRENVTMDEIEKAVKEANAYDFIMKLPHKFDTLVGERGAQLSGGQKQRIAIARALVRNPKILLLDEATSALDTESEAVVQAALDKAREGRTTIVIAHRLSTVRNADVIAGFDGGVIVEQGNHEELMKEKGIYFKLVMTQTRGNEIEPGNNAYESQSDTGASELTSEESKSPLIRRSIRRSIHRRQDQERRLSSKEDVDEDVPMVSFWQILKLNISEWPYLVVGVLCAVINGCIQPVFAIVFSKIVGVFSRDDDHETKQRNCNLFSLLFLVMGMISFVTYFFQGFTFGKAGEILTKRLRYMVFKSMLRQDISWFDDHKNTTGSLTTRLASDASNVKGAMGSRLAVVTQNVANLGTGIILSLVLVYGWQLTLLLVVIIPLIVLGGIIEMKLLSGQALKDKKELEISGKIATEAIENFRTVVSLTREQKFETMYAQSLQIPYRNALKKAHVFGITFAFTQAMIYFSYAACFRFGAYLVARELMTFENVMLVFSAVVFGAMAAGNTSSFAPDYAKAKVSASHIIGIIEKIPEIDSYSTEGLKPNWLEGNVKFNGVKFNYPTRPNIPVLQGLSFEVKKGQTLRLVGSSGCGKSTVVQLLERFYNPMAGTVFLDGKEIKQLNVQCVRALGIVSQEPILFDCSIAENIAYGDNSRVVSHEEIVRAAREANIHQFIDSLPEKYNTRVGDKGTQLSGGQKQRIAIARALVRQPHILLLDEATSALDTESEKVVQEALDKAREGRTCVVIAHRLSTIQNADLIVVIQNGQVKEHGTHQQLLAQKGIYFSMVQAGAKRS

Consider INSULIN HUMAN, for which the Activity result was “inducer [+]”.
